According to patent US11426402B2, “IRE1 activating compounds for use in therapy” (The Scripps Research Institute, priority 2019, dated 2022):

Experiments:
[1] = system: IRE1/XBP1s signaling pathway; assay: XBP1-RLuc splicing reporter in HEK293T-REx cells; format: cell-based; details: activators 10 μM, 4 μ8c 32 μM, 18 hr
Description: FIG. 2A and FIG. 2B. Activation of RLuc luminescence in HEK293T-Rex cells stably expressing XBP1s-RLuc treated with 10 μM IRE1 activators in the presence or absence of IRE1 inhibitor 4 μ8c (32 μM) for 18 hr. Luminescence is shown as % signal relative to Tg treatment (500 nM; 18 hr). Error bars represent standard deviation for n=3 replicates (FIG. 2A), Activation of RLuc luminescence in HEK293T-Rex cells stably expressing XBP1s-RLuc treated with the indicated concentrations of IRE1 activator compounds for 18 hr. Luminescence is shown as % signal relative to Tg treatment (500 nM; 18 hr) Error bars represent standard deviation for n=3 replicates (FIG. 2B).
HEK293T-Rex cells incorporating either the XBP1s-Rluc or ERSE-FLuc reporters were collected by trypsinization and resuspended at a density of 500,000 cells per mL. The assay was started by dispensing 5 μL of cell suspension into each well of white, solid-bottom 1536-well plates using a flying reagent dispenser (FRD) and placed into an online incubator for 3 hr. Cells were then treated with 34 nL/well of either test compounds to give final concentrations of 5.17 μM, DMSO (low control, final concentration 0.68%, 0% activation) or 37 μM of Delta-7 thapsigargin (high control, final concentration 500 nM, 100% activation). Plates were incubated for 18 hr at 37° C., removed from the incubator and equilibrated to room temperature for 10 min. Luciferase activity was detected by addition of 5 μL of ONE-Glo reagent (Promega) to each well. After a 10 min incubation time, light emission was measured with the ViewLux reader (PerkinElmer).
The percent activation of each test compound was calculated as follows: % Activation=100*(Test Compound-Median Low Control)/(Median High Control Median Low Control). Primary screening of the 646,275 compound library at Scripps Florida yielded 10,114 hits for XBP1s Renilla Luciferase activity at ≥13.83% activation by thapsigargin. Compounds that hit in more than 7 screens (promiscuity score) were eliminated, as well as those that elicited HSP70 activation. The top 6,391 remaining compounds (activation≥16.36%) were moved forward to triplicate confirmation screening and HEK TREX CTG cytotoxicity counterscreening. Duplicates were removed from the resulting list, and the top 638 activating compounds (≥15.92%) were moved forward for triplicate titration screening and HEK TREX CTG titration counterscreening.
A HEK293^T-REx cell line that stably expresses a XBP1-Renilla luciferase (XBP1-RLuc) splicing reporter was used to identify compounds that activated the IRE1/XBP1s signaling pathway^37. Activated IRE1selectively splices mRNA encoded by this reporter, resulting in a frame-shift that allows expression of the active Renilla luciferase enzyme^37. […]

[2] = system: DNAJB9; format: cell-based; details: 4 μ8c 32 μM
[3] = system: BiP; assay: qPCR of ATF6-regulated gene BiP in HEK293T cells; format: cell-based
Description: (§1) FIG. 3A-FIG. 3D. […] Error bars show SEM for n=3. […] Error bars show SEM for n=3. […] Error bars show SEM for n=3.
The compounds were measured for their abilities to induce expression of ER stress-responsive genes CHOP and BiP (or […]) regulated downstream of the PERK and ATF6 UPR signaling pathways, respectively^8, 40. The Tg-dependent expression of these two genes is largely insensitive to 4 μ8c, confirming their induction through an IRE1/XBP1s independent mechanism.

[4] = system: secreted Aβ; assay: Aβ ELISA of media conditioned on CHO 7PA2 cells (V717F APP); format: cell-based; details: 4 μ8c 32 μM
Description: (§2) FIGS. 5A-5D. […] Cells were treated for 18 hours, media was then replaced and conditioned in the presence of treatments for 24 hours before harvesting for ELISA assay. Error bars represent SEM for n=3 replicates. Statistics calculated from one-tailed Student's t-test. *p<0.05, **p<0.01, ***p<0.001 (FIG. 5A). Quantification of media and lysate immunoblots from 474 treatment (10 μM) of APP. Error bars represent Standard Deviation for n=3 replicates. Statistics calculated from one-tailed Student's t-test. *p<0.05, **p<0.01 ***p<0.001 (FIG. 5B). Plot showing fraction of total remaining APP at each time point after S35 metabolic labeling of newly synthesized protein, accounting for the sum of APP in lysate and media. Error bars represent Standard Deviation for n=3 replicates. Statistics calculated from one-tailed Student's t-test. *p<0.05, **p<0.01, ***p<0.001 (FIG. 5C). Plot showing fraction of secreted APP collected at 2 hours after metabolic labeling. Error bars represent Standard Deviation for n=3 replicates. Statistics calculated from one-tailed Student's t-test. *p<0.05, **p<0.01, ***p<0.001 (FIG. 5D).
7PA2 or 7WD10 cells were cultured on 96-well plates (Corning) and treated with IRE1 activating compounds +/−4 μ8c overnight. The medium was then replaced at 50% volume with treatment remaing, culture medium was collected after 24 hours. The medium was analyzed by an AP ELISA as follows. Monoclonal 6E10 anti-Aβ(residues 1-17) mouse IgG1, (Biolegend) was coated in […] carbonate buffer, pH 9.6, at 4° C. overnight on high binding assay black plates (Costar), washed with TBST (tris buffered saline with 0.05% Tween 20) and blocked with 5% non-fat milk in TBST. Samples and standards (condition 7PA2 media) were incubated for 1.5 hr, followed by addition of 4G8 antibody [anti-Aβ residues 17-24, mouse IgG2b (Biolegend)] conjugated to horseradish peroxidase (hrp) and incubated for 1.5 hr at 25° C. After washing, ABM substrate was added, followed by detection with an absorbance plate reader.
ELISA was used to monitor Aβ in media conditioned on a CHO cell line stably expressing the destabilized, disease-associated V717F APP mutant (CHO^7PA2)^45 treated with or without compounds 198, 474, and 970. […] The reduction in A secretion can be attributed to IRE1 activation because the reduced extracellular accumulation of Aβ is blocked by co-treatment with the active site IRE1 inhibitor 4 μ8c (FIG. 5A).

[5] = system: APP; assay: APP immunoblots of lysates and conditioned media of CHO 7PA2 cells; format: cell-based; details: with compound 474
Description: as §2, with “5D). […]” for “5D).”

[6] = target: IRE1 (Homo sapiens, UniProt O75460); assay: IRE1 phosphorylation by Phos-tag SDS-PAGE and immunoblotting in HEK293T cells; format: cell-based; details: co-treatment of Tg (500 nM) and 1 μM APY29
IRE1, sequence (O75460 19-977): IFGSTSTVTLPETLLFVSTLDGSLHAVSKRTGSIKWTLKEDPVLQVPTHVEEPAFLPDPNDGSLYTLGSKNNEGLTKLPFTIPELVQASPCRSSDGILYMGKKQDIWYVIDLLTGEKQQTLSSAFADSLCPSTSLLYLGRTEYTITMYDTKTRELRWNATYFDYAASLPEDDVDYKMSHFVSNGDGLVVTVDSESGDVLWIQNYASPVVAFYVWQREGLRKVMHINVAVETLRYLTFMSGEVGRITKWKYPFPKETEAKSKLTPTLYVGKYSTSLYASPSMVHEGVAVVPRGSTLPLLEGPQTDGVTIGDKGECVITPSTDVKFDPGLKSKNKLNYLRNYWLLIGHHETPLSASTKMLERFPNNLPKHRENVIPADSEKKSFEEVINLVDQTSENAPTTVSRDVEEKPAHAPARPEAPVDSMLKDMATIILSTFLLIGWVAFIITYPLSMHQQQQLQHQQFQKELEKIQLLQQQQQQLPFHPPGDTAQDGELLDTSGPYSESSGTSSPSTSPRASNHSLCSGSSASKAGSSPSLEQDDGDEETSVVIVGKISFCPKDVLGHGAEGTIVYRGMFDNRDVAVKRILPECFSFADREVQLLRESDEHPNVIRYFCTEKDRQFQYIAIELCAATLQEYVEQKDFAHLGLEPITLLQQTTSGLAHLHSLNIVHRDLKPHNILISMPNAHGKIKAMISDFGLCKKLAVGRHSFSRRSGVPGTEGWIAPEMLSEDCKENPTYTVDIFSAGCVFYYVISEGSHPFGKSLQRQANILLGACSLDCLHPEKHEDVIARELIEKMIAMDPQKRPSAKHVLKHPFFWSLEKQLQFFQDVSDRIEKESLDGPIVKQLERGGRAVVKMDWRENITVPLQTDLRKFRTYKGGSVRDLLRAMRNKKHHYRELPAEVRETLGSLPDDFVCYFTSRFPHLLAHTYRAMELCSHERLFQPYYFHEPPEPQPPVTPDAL
Description: as §1
Cell lysates were prepared as previously described in RIPA buffer (50 mM Tris, pH 7.5, 150 mM NaCl, 0.1% SDS, 1% Triton X-100, 0.5% deoxycholate and protease inhibitor cocktail (Roche). Total protein concentration in cellular lysates was normalized using the Bio-Rad protein assay. Lysates were then denatured with 1× Laemmli buffer+100 mM DTT and boiled before being separated by SDS-PAGE. Samples were transferred onto nitrocellulose membranes (Bio-Rad) for immunoblotting and blocked with 5% milk in Tris-buffered saline, 0.5% Tween-20 (TBST) following incubation overnight at 4° C. with primary antibodies. Membranes were washed in TBST, incubated with IR-Dye conjugated secondary antibodies and analyzed using Odyssey Infrared Imaging System (LI-COR Biosciences). Quantification was carried out with LI-COR Image Studio software.
Compounds that activate IRE1 through binding the IRE1 kinase active site and inhibiting IRE1 autophosphorylation can elicit off-target activity likely associated with binding to other protein kinases.^20, 35, 36 Thus, the purpose of this example was to define the dependence of the present compounds on IRE1 kinase activity. HEK293T cells were treated with compound 198, 474, or 970 in the absence or presence of Tg, and IRE1 phosphorylation was monitored by using Phos-tag SDS-PAGE and immunoblotting. As a control, cells were treated with APY29—an IRE1 kinase site inhibitor that allosterically activates the IRE1 RNAse^20 in the absence or presence of Tg.

[7] = system: XBP1 splicing; assay: XBP1 splicing in HEK293T cells with or without KIRA6; format: cell-based
Description: To amplify the spliced and unspliced XBP1 mRNA, XBP1 primers were used as described previously.^21 PCR products were electrophoresed on 2.5% agarose gel. GAPDH (forward 5′[…]3′, reverse 5′[…]3′) was used as a loading control. The size difference between the spliced and the unspliced XBP1 is 26 nucleotides.
Next was determined the dependence of compound-dependent IRE1 RNAse activation on autophosphorylation. HEK293T cells were initially treated with the compounds in the absence or presence of KIRA6—a compound that binds the nucleotide binding pocket and inhibits both IRE1 kinase and RNAse activity^36. Co-treatment with KIRA6 blocked compound-dependent XBP1splicing.

[8] = system: RIDD targets SCARA3, Bloc1s1 and Col6A1; assay: IRE1 RIDD activity from the RNAseq dataset in HEK293T cells; format: cell-based, human; details: 6 hours
Description: Cells were lysed and total RNA collected using the RNeasy mini kit, according to manufacturer's instructions (Qiagen). Conventional RNA-seq was conducted via BGI Americas on the BGI Proprietary platform, providing single-end 50 bp reads at 20 million reads per sample. Alignment of sequencing data was done using DNAstar Lasergene SeqManPro to the GRCh37. p 13 human genome reference assembly, and assembly data were imported into ArrayStar 12.2 with QSeq (DNAStar Inc.) to quantify the gene expression levels and normalization to reads per kilobase per million (RPKM). Differential expression analysis and statistical significance calculations between different conditions was assessed using “DESeq” in R, compared to vehicle-treated cells, using a standard negative binomial fit of the RPKM data to generate Fold Change quantifications.
Also evaluated was IRE1 RIDD activity induced by the compounds using the RNAseq dataset. Despite robust IRE1/XBP1s transcriptional activity following 6 hours of treatment, there was no evidence for RIDD after the same 6 hours.

With `Cc1cc(=O)oc2c(C=O)c(O)ccc12` [4 μ8c, reference compound] as the compound, how does the “effect of 4 μ8c co-administration on compound-dependent XBP1 splicing reporter activation” value [1] read?
The value was “blocked”.

And the “effect of 4 μ8c co-treatment on compound-increased DNAJB9 expression” value [2]?
Its value is “inhibited”.

And the “effect of co-treatment on compound-dependent BiP increase” value [3]?
Its value is “blocked”.

What about the “effect of 4 μ8c co-treatment on reduced extracellular Aβ” value [4] of the same compound?
The value was “blocked”.

What about the “effect of 4 μ8c co-treatment on reduced APP levels” value [5] of the same compound?
The value was “reversed”.

Which IRE1 phosphorylation [6] does the source give for `c1cc(Nc2cc(C3CC3)[nH]n2)nc(Nc2ccc3nc[nH]c3c2)n1` [APY29, reference compound] here?
The IRE1 phosphorylation was “significant reductions”.

Which “effect of KIRA6 co-treatment on compound-dependent XBP1 splicing” value [7] does the source give for `CC(C)(C)c1nc(-c2ccc(NC(=O)Nc3cccc(C(F)(F)F)c3)c3ccccc23)c2c(N)nccn12` [KIRA6] here?
Its value is “blocked”.

How did the “levels of RIDD targets SCARA3, Bloc1s1 and Col6A1” value [8] turn out when `C/C=C(/C)C(=O)O[C@H]1C(C)=C2[C@H]([C@@H]1OC(=O)CCCCCCC)[C@@](C)(OC(C)=O)C[C@H](OC(=O)CCC)[C@@]1(O)[C@H]2OC(=O)[C@@]1(C)O` [Tg, thapsigargin] was run?
Its value is “reduced”.
